Assay results from patent publication US20110262395A1, “SENSORY RECEPTORS FOR CHRONIC FATIGUE AND PAIN AND USES THEREOF” (UNIVERSITY OF UTAH RESEARCH FOUNDATION, priority 2008, published 2011).
Entries after “also recorded” stand apart in the source; their conditions may differ.

Legend:
DRG neurons [1] = experiment: Calcium imaging of cultured DRG neurons: antagonist effects on responses to increasing metabolites (protons, lactate, ATP); assay type: cell-based, mouse
From the text: (§1) Harvesting/culturing cells/loading cells: Thirty-nine three week old (4 wells of DRG neurons plated from each mouse), C57Bl/6 mice were anesthetized with isoflurane, and euthanized by cervical dislocation. Dorsal root ganglia (DRG) from lumbar regions were removed into HBSS, treated with trypsin, washed with MEM (Invitrogen 51200-038) containing 10% FBS (Hyclone), 2.4% glucose, 1% glutamax (Invitrogen 35050-061) and 1% penicillin/streptomycin (Atlanta Biological B2110). DRG were triturated, pre-plated and incubated at 37° C. for one hour to reduce non-neuronal cells. Neurons were gently swirled and centrifuged (110×g, 5 min). Cells were removed, re-suspended and 30 μL plated onto the 4 center wells of 24-well plates coated with poly-L-lysine and laminin. A 0.5 mm thick silicone ring with a 4 mm diameter opening sealed to the surface of each well reduced the plating area in each well. Following 1 hour, wells were filled with 37° C. culture medium with 10 ng/mL GDNF (Glial Derived Neurotrophic Factor) (Preprotech 450-10). Sixteen to 23 hours after plating, cultures were loaded with Fura-2 AM (Molecular Probes F-1221) fluorescent dye for 40-60 minutes, then washed with pH 7.4 oxygenated observation medium containing no additional ATP (145 mM NaCl, 5 mM KCl, 2 mM CaCl2, 1 mM MgCl2, 1 mM Citrate, 10 mM glucose, 10 mM MES, 10 mM HEPES). The final well volume was 500 μL.
(§2) Combinations of metabolites applied to mimic naturally occurring conditions: When applied in an escalating series to mimic increases in metabolites that occur with muscle exercise and ischemic muscle exercise, the metabolite values shown in Table 1 were used. The values associated with pH 7.6 are at or below those normally found at rest in the mouse. The values at 7.4 approximate those found at rest. Generally, the low metabolite values associated with pH higher than 7.0 are likely to be non-noxious, while higher metabolite values at pH 7.0 and lower may be associated with pain. These values should bracket the physiological range of metabolites found in skeletal muscle with the last two values (those associated with 6.4 and 6.2) being higher than the physiological range (Bangsbo et al., 1993; Bangsbo et al., 2001; Li et al., 2003; Li et al., 2005; Reeh and Kress, 2001; Steinhagen et al., 1976).
(§3) JYL-1422, LJO-328, A-317567, and a selected stereo isomer of A-317567 were each dissolved in 5% DMSO/95% water and a few μL of 1M HCl to a concentration of 10 mM, then quick frozen and stored at −20° C. Aliquots of antagonists were thawed and diluted to the appropriate concentrations just prior to use in the experiments. The strong buffers maintained the pH of these antagonists when mixed with metabolites.
(§4) Imaging procedure: All experiments were performed at room temperature (20-25° C.) to allow correspondence with most previous experiments using calcium imaging and patch clamp of DRG neurons. Cells were imaged using the Meta Imaging Series Metafluor program (Universal Imaging Corp). All cells identifiable as neurons based on their round shape, clear, single nucleus, were selected from a phase image of the field. At the end of each experiment, 200 nM capsaicin was applied, followed by a wash, and then applied 50 mM KCl. Capsaicin activation indicated the presence of TRPV1 receptors on neurons, and KCl ensured that recorded objects were active neurons, and established the maximal calcium response in each neuron. For some neurons the administration of capsaicin abolished the potential for responding to KCl, thus either a response to capsaicin or to KCl indicated viability of neurons, and only viable neurons were included in analyses.
For each field an average of 151+10 cells were tracked real-time. […] FIGS. 1 and 2 show traces from these graphs. […]

DRG neurons [2] = experiment: Calcium imaging of cultured DRG neurons: antagonist effects on responses to capsaicin, ATP or KCl (selectivity control); assay type: cell-based, mouse
From the text: as §1, §3, §4
For each field an average of 151+10 cells were tracked real-time. […]

ASIC1 = molecular target: T1, ASIC1 (Homo sapiens, UniProt P78348); settings: read-out: IC 50 for ASIC1; cited from earlier work
T1 sequence (P78348 1-528): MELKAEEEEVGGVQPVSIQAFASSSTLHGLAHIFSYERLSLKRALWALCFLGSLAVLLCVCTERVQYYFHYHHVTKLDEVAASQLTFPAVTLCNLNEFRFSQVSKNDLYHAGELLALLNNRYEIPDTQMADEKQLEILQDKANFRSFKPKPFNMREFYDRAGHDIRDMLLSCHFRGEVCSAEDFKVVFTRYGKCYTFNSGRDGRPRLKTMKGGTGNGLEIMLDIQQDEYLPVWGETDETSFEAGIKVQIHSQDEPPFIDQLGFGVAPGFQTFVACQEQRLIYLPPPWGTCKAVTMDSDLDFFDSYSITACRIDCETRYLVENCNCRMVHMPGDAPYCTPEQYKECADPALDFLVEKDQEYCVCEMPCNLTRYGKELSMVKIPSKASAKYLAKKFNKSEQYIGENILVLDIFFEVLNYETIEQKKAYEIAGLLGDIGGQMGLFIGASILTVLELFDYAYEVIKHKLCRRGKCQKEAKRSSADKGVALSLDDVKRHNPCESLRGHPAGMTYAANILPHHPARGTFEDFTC

ASIC2 = molecular target: T2, ASIC2 (Homo sapiens, UniProt Q16515); settings: read-out: IC 50 for ASIC2; cited from earlier work
T2 sequence (Q16515 1-512): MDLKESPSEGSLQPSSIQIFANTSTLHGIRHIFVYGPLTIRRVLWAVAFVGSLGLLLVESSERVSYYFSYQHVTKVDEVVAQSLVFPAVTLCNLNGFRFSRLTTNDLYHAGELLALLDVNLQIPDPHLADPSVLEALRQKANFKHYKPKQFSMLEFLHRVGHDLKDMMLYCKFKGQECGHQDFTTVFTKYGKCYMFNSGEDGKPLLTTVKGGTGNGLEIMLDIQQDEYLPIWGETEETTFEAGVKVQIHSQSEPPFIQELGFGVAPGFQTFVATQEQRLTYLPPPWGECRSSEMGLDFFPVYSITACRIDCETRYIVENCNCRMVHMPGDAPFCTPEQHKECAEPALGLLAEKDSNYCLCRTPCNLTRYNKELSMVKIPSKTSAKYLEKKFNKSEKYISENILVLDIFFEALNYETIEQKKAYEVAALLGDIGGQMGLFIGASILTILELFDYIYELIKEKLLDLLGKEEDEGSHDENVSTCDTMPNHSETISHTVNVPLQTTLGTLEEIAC

ASIC3 = molecular target: T3, ASIC3 (Homo sapiens, UniProt Q9UHC3); settings: cited from earlier work
T3 sequence (Q9UHC3 1-531): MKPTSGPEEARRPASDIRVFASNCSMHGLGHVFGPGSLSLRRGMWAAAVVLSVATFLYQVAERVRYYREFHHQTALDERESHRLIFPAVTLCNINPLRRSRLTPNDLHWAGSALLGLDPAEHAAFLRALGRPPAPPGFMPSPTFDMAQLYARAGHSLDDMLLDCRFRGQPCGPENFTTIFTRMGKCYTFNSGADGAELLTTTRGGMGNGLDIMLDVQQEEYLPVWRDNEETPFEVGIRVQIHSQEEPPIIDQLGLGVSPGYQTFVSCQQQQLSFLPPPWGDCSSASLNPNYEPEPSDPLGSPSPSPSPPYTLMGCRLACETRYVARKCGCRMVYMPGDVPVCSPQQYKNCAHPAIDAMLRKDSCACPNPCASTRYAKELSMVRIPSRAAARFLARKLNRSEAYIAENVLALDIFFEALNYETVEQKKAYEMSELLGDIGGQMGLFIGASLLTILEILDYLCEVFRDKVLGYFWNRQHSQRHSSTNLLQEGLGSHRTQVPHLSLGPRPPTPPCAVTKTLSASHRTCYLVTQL

DRG neurons [3] = experiment: Calcium imaging of cultured DRG neurons: percent of neurons responding to applied metabolites or capsaicin; assay type: cell-based, mouse; settings: for ability to enhance metabolite responses: ATP: 1 μM
From the text: as §1
Choice and concentrations of metabolites: Because the afferent receptors in muscle have been reported to be on the outside of blood vessels supplying muscle, values obtained for muscle interstitium from experiments using cat, rat, and human for muscle contraction evoked by mild to moderate to extreme exercise were used.
Protons (pH): Values between 7.6 and 6.2 were used spanning the range found in skeletal and cardiac muscle in mammals from above resting values to those found with injury and disease.
Lactate: 1-50 mM lactate was used, a range of values that spans from rest to ischemia in muscles of humans and rats and mice.
ATP: ATP concentrations in muscle interstitium increase from 300 nM at rest to 5 μM with ischemic muscle contraction (Hellsten et al., 1998; Li et al., 2003; Li et al., 2005). These levels were used in the experiments described below. […] To allow for physiological levels of desensitization of possible P2X receptors, freshly prepared ATP at 300 nM was used for at least 30 seconds before any further increases in ATP combined with other metabolites, to establish resting conditions in DRG neurons in these experiments. […] Also used were pH 6.0 and 4.0 without additional increases in metabolites to confirm that the imaging experiments could replicate recent reports using patch-clamp techniques (Leffler et al., 2006).
as §2
Di-I labeling: In some experiments, neurons were identified as innervating muscle by prior muscle labeling with Di-I. Twelve 7-9 day old mice were anesthetized by cooling. […]

CC(C)C1c2cc(C3CC3c3ccc4cc(C(=N)N)ccc4c3)ccc2CCN1C (stereo not shown) [A-317567]
DRG neuron responses to metabolites blocked (DRG neurons [1]; antagonist 100 μM, metabolites increased as high as pH 6.6, lactate 50 mM, ATP 5): ~80%
responses to metabolites, % of the control level (DRG neurons [1]; antagonist 100 μM, p<0.0001): 23%
effect on responses to metabolites (DRG neurons [1]; antagonist 200 μM): blocked all responses to metabolites
effect on responses to capsaicin, ATP or KCl (DRG neurons [2]; any dose, applied for 10 minutes or less): caused no decrements in calcium responses evoked by capsaicin, ATP or KCl; also recorded: did not decrease responses to capsaicin, ATP, or KCl; also recorded: did not block DRG neuron capsaicin responses, KCl responses, or responses to 5 μM ATP
effect on responses to capsaicin, ATP or KCl (DRG neurons [2]; applied for more than 20 minutes): caused some decrements in these responses
IC50 (ASIC1): 2 µM
IC50 (ASIC2): 9.1 µM
IC50 (ASIC3; read-out: IC 50 for ASIC3): 9.5 µM

Nc1ncnc2c1ncn2[C@@H]1O[C@H](COP(=O)(O)OP(=O)(O)O)[C@@H](O)[C@H]1O [ADP]
ability to enhance metabolite responses (DRG neurons [3]): not capable of enhancing metabolite responses

Nc1ncnc2c1ncn2[C@@H]1O[C@H](COP(=O)(O)OP(=O)(O)OP(=O)(O)O)[C@@H](O)[C@H]1O [ATP]
percent of DRG neurons responding (DRG neurons [3]; ATP with lactate): 4.7%
ability to enhance metabolite responses (DRG neurons [3]): capable of enhancing metabolite responses when freshly prepared
percent of DRG neurons activated (DRG neurons [3]; graded series, going from 2 μM to 5 μM): approximately 16%
percent of DRG neurons activated (DRG neurons [3]; gradually increased from resting amounts, only at concentrations higher than 2 μM): < 11%
percent of DRG neurons activated (DRG neurons [3]; increasing graded series from 300 nM, when 2 μM was reached): less than 10%
percent of DRG neurons responding (DRG neurons [3]; pH 7.0-ATP 1 μM (increasing protons with addition of ATP)): 11.2%

Cc1nc(N=Nc2ccc(S(=O)(=O)O)cc2S(=O)(=O)O)c(COP(=O)(O)O)c(C=O)c1O [PPADS]
effect on responses to increasing metabolites (DRG neurons [1]; antagonist 300 μM): eliminated most responses to increasing metabolites
effect on responses to increasing metabolites (DRG neurons [1]; antagonist 200-300 μM, doses effective at all P2X receptors): eliminated nearly all responses to increasing metabolites

CC(O)C(=O)O (stereo not shown) [lactate]
percent of DRG neurons activated (DRG neurons [3]; 50 mM, pH 6.6): 9.5%
percent of DRG neurons activated (DRG neurons [3]; 5-15 mM combined with protons at pH 7.3-6.8): less than 4%
DRG neuron responses (DRG neurons [3]; alone, 1-50 mM, pH 7.4): caused no increases in DRG neuron responses; also recorded: activated very few mouse DRG neurons
total percent of DRG neurons activated (DRG neurons [3]; lactate plus protons, all levels of metabolites included): more than 10%

APETx2
inhibition of ASIC3 and ASIC3 heteromers (ASIC3): can selectively inhibit ASIC3 and ASIC3 heteromers
